{"source": "patent US12036222B2", "about": "“Methods of treating cancers overexpressing CARM1 with EZH2 inhibitors and a PARP inhibitor” (The Wistar Institut of Anatomy and Biology, priority 2018, dated 2024)", "key": {"[1]": {"test_system": "CARM1-expressing A1847 tumors", "assay": "Subcutaneous xenograft model, CARM1-expressing A1847 cells", "assay_type": "in vivo, NSG mice", "settings": "50 mg/kg daily i.p., three weeks", "description": "The protocols were approved by the Institutional Animal Care and Use Committee (IACUC). 5×10^6 control A1847 or A1847 CARM1 knockout cells were unilaterally injected subcutaneously into 6-8-week old female immunocompromised NSG mice (n=5 per group). One week after injection the mice were randomized and treated with vehicle control (20% captisol) or GSK126 (50 mg/kg daily). Tumor size was measured every 3 days for 3 weeks. At end of the experiments, tumors were surgically dissected and tumor burden was calculated based on tumor weight.\nEZH2 inhibitors, such as GSK126, are used safely in clinical trials for hematopoietic malignancies (Ribrag et al. Eur J Cancer (2014) 50:197). To determine the effects of EZH2 inhibition in vivo on the growth of CARM1-expressing ovarian tumors, two xenograft models were utilized. In the subcutaneous xenograft models, the injected CARM1-expressing A1847 cells were first allowed to grow for one week to establish the tumors. Mice were then randomized and treated daily with vehicle control or GSK126 (50 mg/kg) by intraperitioneal (i.p.) injection as reported (see, e.g., Bitler et al. Nature Medicine (2015) 21:231-8 and McCabe et al. Nature (2012) 492:108-12). […] To more closely mimic the tumor microenvironment, A1847 cells were orthotopically transplanted into the bursa covering the ovary of immunocompromised NSG mice. […]"}, "CARM1-depleted cells": {"test_system": "CARM1-depleted cells", "assay": "Colony formation assay with CARM1-depleted cells", "assay_type": "cell-based", "settings": "CARM1-depleted vs normal cells, GSK126 vs DMSO", "description": "To confirm the relationship between CARM1 overexpression and sensitivity to EZH2 inhibition, further studies were performed to assess the impact of CARM1 depletion. In FIG. 9, a Western blot of CARM1 and BAF155me2 in CARM1 depleted cells with a control (Actin) is shown. In addition, the results of a colony formation assay (unstained, magnified) with normal and CARM1-depleted cells, in DMSO (control) and treated with GSK126, are shown in FIG. 10. A colony formation assay with normal and CARM1-depleted cells, in DMSO (control) and after treatment with GSK126 is shown in FIG. 11, with the results quantified in FIG. 12. Finally, FIG. 13 illustrates the results of treatment of CARM1 depleted cells with GSK126.\n(§1) 500 to 5,000 cell were plated into a 24 well tissue culture plate and treated with the indicated compounds. Medium was changed every three days with appropriate drug doses for 12 days or until control wells became confluent. Colonies were washed twice with PBS and fixed with 10% methanol and 10% acetic acid in distilled water. Fixed colonies were stained with 0.005% crystal violet. Integrated density was measured using NIH ImageJ software."}, "[2]": {"target": "T1, PRC2 subunits EZH2 and SUZ12 interaction (Homo sapiens, UniProt Q15910)", "T1 construct": "endogenous in cells; host or cells: A1847 cells (CARM1-high)", "T1 sequence (Q15910 whole entry)": "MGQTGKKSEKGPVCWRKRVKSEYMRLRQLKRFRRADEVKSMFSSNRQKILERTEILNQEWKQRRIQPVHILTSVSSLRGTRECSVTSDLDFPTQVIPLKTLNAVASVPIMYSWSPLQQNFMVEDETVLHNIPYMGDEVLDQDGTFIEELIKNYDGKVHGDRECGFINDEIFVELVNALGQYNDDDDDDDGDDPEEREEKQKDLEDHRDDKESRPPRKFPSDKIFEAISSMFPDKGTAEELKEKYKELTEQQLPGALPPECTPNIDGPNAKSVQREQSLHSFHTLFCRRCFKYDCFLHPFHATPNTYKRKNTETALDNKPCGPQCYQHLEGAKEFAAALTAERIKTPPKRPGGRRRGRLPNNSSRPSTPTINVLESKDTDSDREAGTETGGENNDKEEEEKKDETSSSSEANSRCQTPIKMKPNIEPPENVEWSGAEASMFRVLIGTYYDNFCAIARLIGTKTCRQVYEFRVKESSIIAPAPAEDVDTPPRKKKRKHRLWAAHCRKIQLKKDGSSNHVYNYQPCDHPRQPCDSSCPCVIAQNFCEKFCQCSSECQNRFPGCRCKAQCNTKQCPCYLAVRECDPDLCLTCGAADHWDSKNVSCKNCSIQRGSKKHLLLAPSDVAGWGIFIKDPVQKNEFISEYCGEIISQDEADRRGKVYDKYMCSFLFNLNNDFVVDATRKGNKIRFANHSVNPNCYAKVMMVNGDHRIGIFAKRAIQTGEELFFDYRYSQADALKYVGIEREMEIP", "T1 sequence (Q15022 whole entry partner)": "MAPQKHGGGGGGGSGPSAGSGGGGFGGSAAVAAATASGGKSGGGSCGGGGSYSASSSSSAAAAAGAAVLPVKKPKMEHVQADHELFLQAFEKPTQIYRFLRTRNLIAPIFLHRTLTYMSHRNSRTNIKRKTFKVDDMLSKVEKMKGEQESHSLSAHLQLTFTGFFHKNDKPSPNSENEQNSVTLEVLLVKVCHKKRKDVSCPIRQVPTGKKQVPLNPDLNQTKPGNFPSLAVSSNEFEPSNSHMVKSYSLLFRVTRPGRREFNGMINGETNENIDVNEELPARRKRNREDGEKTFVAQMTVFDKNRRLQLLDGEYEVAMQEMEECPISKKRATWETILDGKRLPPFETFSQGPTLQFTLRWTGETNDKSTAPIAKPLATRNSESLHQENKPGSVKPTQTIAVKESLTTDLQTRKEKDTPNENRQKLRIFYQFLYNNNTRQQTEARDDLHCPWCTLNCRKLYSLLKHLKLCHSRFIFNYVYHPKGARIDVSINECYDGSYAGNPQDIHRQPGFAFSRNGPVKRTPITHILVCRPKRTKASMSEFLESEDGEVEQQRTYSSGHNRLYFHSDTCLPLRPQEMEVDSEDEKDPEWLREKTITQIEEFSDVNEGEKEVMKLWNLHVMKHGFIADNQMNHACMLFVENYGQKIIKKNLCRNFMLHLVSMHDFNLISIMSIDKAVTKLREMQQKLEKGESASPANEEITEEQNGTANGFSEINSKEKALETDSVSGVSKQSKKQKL", "T1 sequence (O75530 whole entry partner)": "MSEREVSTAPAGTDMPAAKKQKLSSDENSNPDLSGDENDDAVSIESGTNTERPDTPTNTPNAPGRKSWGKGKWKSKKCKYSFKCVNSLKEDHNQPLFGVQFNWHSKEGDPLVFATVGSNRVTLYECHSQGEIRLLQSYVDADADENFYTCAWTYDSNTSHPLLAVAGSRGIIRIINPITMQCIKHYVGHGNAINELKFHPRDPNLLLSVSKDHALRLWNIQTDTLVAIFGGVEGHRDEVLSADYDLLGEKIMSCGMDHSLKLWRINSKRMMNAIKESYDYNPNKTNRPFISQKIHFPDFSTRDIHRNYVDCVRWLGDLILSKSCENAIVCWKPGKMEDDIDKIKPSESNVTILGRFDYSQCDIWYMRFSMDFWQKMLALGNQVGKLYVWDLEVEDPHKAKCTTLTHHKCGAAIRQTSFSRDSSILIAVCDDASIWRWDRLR", "assay": "Immunoprecipitation of EZH2 and immunoblot for SUZ12", "assay_type": "cell-based", "settings": "A1847 cells, 10 μM GSK126, 7 days", "description": "A1847 cells were treated with 10 μM GSK126 or vehicle control for 7 days. The cells were subjected to immunoprecipitation (IP) analysis by using an anti-EZH2 antibody. The immunoprecipitated product was examined for EZH2 and SUZ12 expression by immunoblot. An isotype-matched IgG was used as a control."}, "[3]": {"test_system": "CARM1-low EOC cells such as CAOV3 and PEO1", "assay": "Colony formation assay in CARM1-low EOC cells", "assay_type": "cell-based, human", "settings": "10 μM GSK126", "description": "FIG. 33 illustrates relative growth of the indicated HOSE, FTE, and EOC cancer cell lines with high or low CARM1 expression treated with 10 μM GSK126 or vehicle in a colony formation assay as determined by NIH Image J quantification.\nas §1"}, "DAB2, DLC1, and NOXA": {"test_system": "DAB2, DLC1, and NOXA", "assay": "qRT-PCR of EZH2/BAF155 target genes in cells", "assay_type": "cell-based, human", "settings": "10 μM GSK126", "description": "FIG. 55 illustrates the relative expression of DAB2, DLC1, and NOXA in parental control and CARM1 knockout A1847 cells that were treated with 10 μM GSK126 or vehicle controls. mRNA expression of the indicated genes was determined by qRT-PCR. *p<0.002 compared with parental controls.\nFIG. 56 illustrates the relative expression of DAB2, DLC1, and NOXA in CARM1 high OVCAR10 cells treated with 10 μM GSK126 or vehicle control for 7 days. Expression of the indicated BAF155/EZH2 target genes was determined by qRT-PCR. *p<0.001. Mean of three independent experiments with SEM.\nRNA was isolated by RNeasy Mini Kit (Qiagen). mRNA relative expression for DAB2, DLC1, and PMAIP was determined using SYBR green 1-step iScript (Bio-Rad) with a Life Technologies QuantStudio 3. The primers were: 5′-[…]-3′ (DAB2 forward (SEQ ID NO: 2)) and 5′-[…]-3′ (DAB2 reverse (SEQ ID NO: 3)); 5′-[…]-3′ (DLC1 forward (SEQ ID NO: 4)) and 5′-[…]-3′ (DLC1 reverse (SEQ ID NO: 5)); 5′-[…]-3′ (NOXA forward (SEQ ID NO: 6)) and 5′-[…]-3′ (NOXA reverse (SEQ ID NO: 7)); and 5′-[…]-3′ (TIMP3 forward (SEQ ID NO: 8)) and 5′-[…]-3′ (TIMP3 reverse (SEQ ID NO: 9))."}}, "data": [{"smiles": "CC[C@H](C)n1cc(C)c2c(C(=O)NCc3c(C)cc(C)[nH]c3=O)cc(-c3ccc(N4CCNCC4)nc3)cc21", "note": "[GSK126, (S)-1-(sec-butyl)-N-((4,6-dimethyl-2-oxo-1,2-dihydropyridin-3-yl)methyl)-3-methyl-6-(6-(piperazin-1-yl)pyridin-3-yl)-1H-indole-4-carboxamide]", "values": [{"measurement": "growth of CARM1-expressing tumors", "setting": "[1]", "result": "significantly inhibited the growth"}, {"measurement": "sensitivity after CARM1 depletion", "setting": "CARM1-depleted cells", "result": "abrogating the sensitivity"}, {"measurement": "interaction between PRC2 subunits EZH2 and SUZ12", "setting": "[2]", "result": "did not weaken the interaction"}, {"measurement": "response of CARM1-low EOC cells", "setting": "[3]", "result": "did not respond"}, {"measurement": "expression of identified EZH2/BAF155 target genes (DAB2, DLC1, NOXA)", "setting": "DAB2, DLC1, and NOXA; A1847, OVCAR10 cells", "result": "upregulated"}, {"measurement": "additivity of GSK126 treatment and CARM1 knockout on target gene expression", "setting": "DAB2, DLC1, and NOXA; CARM1 knockout A1847 cells", "result": "did not appear to have additive effects"}]}]}
